# “And” between values parts separate entries of the source, which are not always exact repeats. Equal entries are not always repeated. Where two headings read alike, the source gives them in different places.
# Legend:
# Type in all cases: cell-based
# [1] = test system: Stenotrophomonas maltophilia; test: MIC/MBC of nanoemulsions against gram-negative isolates (CLSI, alamar blue); conditions: 5 isolates; 5 mM EDTA
# [2] = test system: Acinetobacter baumannii; test: as above; conditions: 5 isolates; 5 mM EDTA
# [3] = test system: methicillin-resistant Staphylococcus aureus (MRSA); test: Susceptibility (MIC/MBC) of MRSA clinical isolates; conditions: for MBC50(15) / MIC50(15) / MBC90(26) / MIC90(26): 29 MRSA clinical isolates; for MBC50(15) / MIC50(15): rank 15; for MBC90(26) / MIC90(26): rank 26
# [4] = test system: Haemophilus influenzae; test: Susceptibility (MIC/MBC) of H. influenzae clinical isolates; conditions: for MIC / MIC90: Haemophilus influenzae; for MIC90 / MIC Range: H. influenzae isolates of Table 6
# [5] = individual MRSA clinical isolates, values listed by rank order 1-29
# [6] = strain 30, nanoemulsion values as μg CPC/ml or μg BA/ml
# [7] = strain 32, nanoemulsion values as μg CPC/ml or μg BA/ml
# [8] = strain 33, nanoemulsion values as μg CPC/ml or μg BA/ml
# [9] = strain 34, nanoemulsion values as μg CPC/ml or μg BA/ml
# [10] = strain 35, nanoemulsion values as μg CPC/ml or μg BA/ml
# [11] = strain 36, nanoemulsion values as μg CPC/ml or μg BA/ml
# [12] = strain 37, nanoemulsion values as μg CPC/ml or μg BA/ml
# [13] = strain 38, nanoemulsion values as μg CPC/ml or μg BA/ml
# [14] = strain 41, nanoemulsion values as μg CPC/ml or μg BA/ml
# [15] = strain 42, nanoemulsion values as μg CPC/ml or μg BA/ml
# [16] = strain 49247, nanoemulsion values as μg CPC/ml (P4075EC, W205EC) or μg BA/ml (W205GBA2)
# [17] = nanoemulsion values as μg CPC/ml or μg BA/ml
# [18] = Staphylococcus aureus, MRSA isolates, read-out: MIC90
# [19] = silver nitrate column, individual MRSA clinical isolates by rank order 1-29
smiles,measurement,setting,value
"O=C(O)CN(CCN(CC(=O)O)CC(=O)O)CC(=O)O [EDTA, ethylenediaminetetraacetic acid]",strains inhibited by EDTA alone,[1],5 strains
same,strains inhibited by EDTA alone,[2],3 strains
C[C@H]1COc2c(N3CCN(C)CC3)c(F)cc3c(=O)c(C(=O)O)cn1c23 [Levo],MBC50(15),[3],16 µg/mL
same,MIC50(15),[3],8 µg/mL
same,MBC90(26),[3],>64 µg/mL
same,MIC90(26),[3],32 µg/mL
same,MBC,[3]; [5],>64 μg/ml (6×) and 64 μg/ml (2×) and >32 μg/ml and 32 μg/ml (5×) and 16 μg/ml (3×) and 8 μg/ml (4×) and 4 μg/ml and 1 μg/ml and 0.5 μg/ml and 0.25 μg/ml (5×)
same,MIC,[3]; [5],>64 μg/ml (2×) and 32 μg/ml (5×) and 16 μg/ml (4×) and 8 μg/ml (5×) and 4 μg/ml (5×) and 2 μg/ml and 0.5 μg/ml and 0.25 μg/ml (3×) and 0.125 μg/ml (3×)
CC(=O)O.NCc1ccc(S(N)(=O)=O)cc1 [Maf. Acet.],MBC50(15),[3],>128 µg/mL
same,MBC90(26),[3],>128 µg/mL
same,MBC,[3]; [5],>128 µg/mL
CC(=O)O.NCc1ccc(S(N)(=O)=O)cc1 [Maf. Acet],MIC50(15),[3],>128 µg/mL
same,MIC90(26),[3],>128 µg/mL
same,MIC,[3]; [5],>128 μg/ml (28×) and 128 μg/ml
C/C(=C\C(=O)OCCCCCCCCC(=O)O)C[C@@H]1OC[C@H](C[C@@H]2O[C@H]2[C@@H](C)[C@H](C)O)[C@@H](O)[C@H]1O [Mup],MBC50(15),[3],>2 µg/mL
same,MIC50(15),[3],0.25 µg/mL
same,MBC90(26),[3],>64 µg/mL
same,MIC90(26),[3],>64 µg/mL
same,MBC,[3]; [5],>64 μg/ml (9×) and >8 μg/ml and >4 μg/ml (5×) and >2 μg/ml (11×) and 1 μg/ml (3×)
same,MIC,[3]; [5],>64 μg/ml (8×) and 16 μg/ml and 0.25 μg/ml (9×) and 0.125 μg/ml (11×)
"C/C(=C\C(=O)OCCCCCCCCC(=O)O)C[C@@H]1OC[C@H](C[C@@H]2O[C@H]2[C@@H](C)[C@H](C)O)[C@@H](O)[C@H]1O [Mupirocin, mupirocin]",isolates resistant,[3]; MRSA isolates,31%
Cc1onc(-c2ccccc2)c1C(=O)N[C@@H]1C(=O)N2[C@@H]1SC(C)(C)[C@@H]2C(=O)O [Ox],MBC50(15),[3],>16 µg/mL
same,MIC50(15),[3],>16 µg/mL
same,MBC90(26),[3],>16 µg/mL
same,MIC90(26),[3],>16 µg/mL
same,MBC,[3]; [5],>16 μg/ml (28×) and 1 μg/ml
same,MIC,[3]; [5],>16 μg/ml (26×) and 16 μg/ml (2×) and 0.5 μg/ml
COc1cc(Cc2cnc(N)nc2N)cc(OC)c1OC [Trim],MBC50(15),[3],0.5 µg/mL
same,MIC50(15),[3],0.125 µg/mL
same,MBC90(26),[3],>4 µg/mL
same,MIC90(26),[3],0.5 µg/mL
same,MBC,[3]; [5],>64 μg/ml and >16 μg/ml (2×) and >4 μg/ml and >2 μg/ml (3×) and 4 μg/ml and 2 μg/ml (3×) and 1 μg/ml (2×) and 0.5 μg/ml (5×) and 0.25 μg/ml (6×) and 0.125 μg/ml (4×) and 0.0125 μg/ml
same,MIC,[3]; [5],>64 μg/ml and 1 μg/ml (2×) and 0.5 μg/ml and 0.25 μg/ml and 0.125 μg/ml (24×)
CN[C@H](CC(C)C)C(=O)N[C@H]1C(=O)N[C@@H](CC(N)=O)C(=O)N[C@H]2C(=O)N[C@H]3C(=O)N[C@H](C(=O)N[C@H](C(=O)O)c4cc(O)cc(O)c4-c4cc3ccc4O)[C@H](O)c3ccc(c(Cl)c3)Oc3cc2cc(c3O[C@@H]2O[C@H](CO)[C@@H](O)[C@H](O)[C@H]2O[C@H]2C[C@](C)(N)[C@H](O)[C@H](C)O2)Oc2ccc(cc2Cl)[C@H]1O [Vanco],MBC50(15),[3],1 µg/mL
same,MIC50(15),[3],1 µg/mL
same,MBC90(26),[3],2 µg/mL
same,MIC90(26),[3],1 µg/mL
same,MBC,[3]; [5],4 μg/ml (3×) and 2 μg/ml (7×) and 1 μg/ml (16×) and 0.5 μg/ml (3×)
same,MIC,[3]; [5],2 μg/ml and 1 μg/ml (20×) and 0.5 μg/ml (8×)
CC1(C)S[C@@H]2[C@H](NC(=O)[C@H](N)c3ccccc3)C(=O)N2[C@H]1C(=O)O [ampicillin],MIC,[4]; [6],0.25 µg/mL
same,MIC,[4]; [7],32 µg/mL
same,MIC,[4]; [8],0.25 µg/mL
same,MIC,[4]; [9],> 32 µg/mL
same,MIC,[4]; [10],0.25 µg/mL
same,MIC,[4]; [11],0.125 µg/mL
same,MIC,[4]; [12],> 32 µg/mL
same,MIC,[4]; [13],0.25 µg/mL
same,MIC,[4]; [14],> 32 µg/mL
same,MIC,[4]; [15],> 32 µg/mL
same,MIC,[4]; [16],4 µg/mL
same,MIC90,[4]; [17],> 32 µg/mL
CC[C@H]1OC(=O)[C@H](C)[C@@H](O[C@H]2C[C@@](C)(OC)[C@@H](O)[C@H](C)O2)[C@H](C)[C@@H](O[C@@H]2O[C@H](C)C[C@H](N(C)C)[C@H]2O)[C@](C)(O)C[C@@H](C)CN(C)[C@H](C)[C@@H](O)[C@]1(C)O [azithromycin],susceptibility of the majority of isolates by MIC90 values,[4]; H. influenzae,susceptible
same,MIC Range,[4]; [17],1 to 8 µg/mL
same,MIC,[4]; [6],2 µg/mL
same,MIC,[4]; [7],8 µg/mL
same,MIC,[4]; [8],1 µg/mL
same,MIC,[4]; [9],1 µg/mL
same,MIC,[4]; [10],1 µg/mL
same,MIC,[4]; [11],2 µg/mL
same,MIC,[4]; [12],1 µg/mL
same,MIC,[4]; [13],1 µg/mL
same,MIC,[4]; [14],2 µg/mL
same,MIC,[4]; [15],1 µg/mL
same,MIC,[4]; [16],1 µg/mL
same,MIC90,[4]; [17],2 µg/mL
CCC[C@@H]1C[C@@H](C(=O)N[C@@H]([C@H]2O[C@H](SC)[C@H](O)[C@@H](O)[C@H]2O)[C@H](C)Cl)N(C)C1 [clindamycin],MIC Range,[4]; [17],4 to 16 µg/mL
same,MIC,[4]; [6],16 µg/mL
same,MIC,[4]; [7],8 µg/mL
same,MIC,[4]; [8],16 µg/mL
same,MIC,[4]; [9],16 µg/mL
same,MIC,[4]; [10],8 µg/mL
same,MIC,[4]; [11],16 µg/mL
same,MIC,[4]; [12],4 µg/mL
same,MIC,[4]; [13],16 µg/mL
same,MIC,[4]; [14],8 µg/mL
same,MIC,[4]; [15],4 µg/mL
same,MIC,[4]; [16],8 µg/mL
same,MIC90,[4]; [17],16 µg/mL
same,MIC90,[3]; [18],> 64 µg/mL
C[C@H]1c2cccc(O)c2C(=O)C2=C(O)[C@]3(O)C(=O)C(C(N)=O)=C(O)[C@@H](N(C)C)[C@@H]3[C@@H](O)[C@@H]21 [doxycycline],MIC90,[3]; [18],4 µg/mL
O=[N+]([O-])[O-].[Ag+] [silver nitrate],MIC90,[3]; MRSA isolates,0.00063%
same,MBC50(15),[3]; silver nitrate column,0.0025 µg/mL
same,MIC50(15),[3]; silver nitrate column,0.00031 µg/mL
same,MBC90(26),[3]; silver nitrate column,>0.01 µg/mL
same,MIC90(26),[3]; silver nitrate column,0.00063 µg/mL
same,MBC,[3]; [19],0.01 μg/ml and >0.01 μg/ml (3×) and >0.005 μg/ml (3×) and 0.005 μg/ml and 0.0025 μg/ml (12×) and 0.00125 μg/ml (9×)
same,MIC,[3]; [19],0.0025 μg/ml and 0.00125 μg/ml (2×) and 0.00626 μg/ml (7×) and 0.00312 μg/ml (19×)
Cc1cc(NS(=O)(=O)c2ccc(N)cc2)no1 [sulfamethoxazole],MIC90,[3]; [18],4 µg/mL
COc1cc(Cc2cnc(N)nc2N)cc(OC)c1OC [trimethoprim],MIC90,[3]; [18],0.5 µg/mL
CN[C@H](CC(C)C)C(=O)N[C@H]1C(=O)N[C@@H](CC(N)=O)C(=O)N[C@H]2C(=O)N[C@H]3C(=O)N[C@H](C(=O)N[C@H](C(=O)O)c4cc(O)cc(O)c4-c4cc3ccc4O)[C@H](O)c3ccc(c(Cl)c3)Oc3cc2cc(c3O[C@@H]2O[C@H](CO)[C@@H](O)[C@H](O)[C@H]2O[C@H]2C[C@](C)(N)[C@H](O)[C@H](C)O2)Oc2ccc(cc2Cl)[C@H]1O [vancomycin],cidality,"[3]; MRSA, ratio of MBC90/MIC90",bactericidal (A compound or nanoemulsion is defined as bactericidal if its MBC/MIC ratio was ˜4)
same,MIC90,"[3]; Staphylococcus aureus, MRSA",1 µg/mL

# Reference: patent US20100092526A1, “NANOEMULSION THERAPEUTIC COMPOSITIONS AND METHODS OF USING THE SAME” (NanoBio Corporation, priority 2008, published 2010)
